Common to all, as to format: biochemical, mammalian
The target in one assay is T1, Thrombin (Homo sapiens, UniProt P00734).
T1 construct: Thrombin; MPBio; 19491880; purchased MPBio 19491880
Briefly: Serine protease inhibition: thrombin. As for the experimental part: (§1) The effect of selected BLIs on the enzymatic activity of some common mammalian serine proteases was evaluated.
(§2) 50 μl of the diluted enzyme was mixed with 50 μl of inhibitor at various concentrations and 50 μl of corresponding buffer (Table 7). Reaction mixtures were incubated for 10 min at 37° C. Subsequently, 50 μl of corresponding substrate (Table 7) was added and absorbance or fluorescence was monitored for 30 min on SpectraMax M2 plate reader (Molecular Devices). 4-(2-Aminoethyl)benzenesulfonyl fluoride hydrochloride (AEBSF) and leupeptin were used as positive controls. Rates of reaction were calculated and presented relative to “no treatment” control.

Another assay deals with T2, Urokinase (Homo sapiens, UniProt P00749).
T2 construct: purchased Calbiochem 672112
Briefly: Serine protease inhibition: urokinase. As for the experimental part: as §1, §2

Another assay deals with T3, Chymase (Homo sapiens, UniProt P23946).
T3 construct: purchased Enzo Lifescience BML-SE281
T3 sequence (P23946 22-247): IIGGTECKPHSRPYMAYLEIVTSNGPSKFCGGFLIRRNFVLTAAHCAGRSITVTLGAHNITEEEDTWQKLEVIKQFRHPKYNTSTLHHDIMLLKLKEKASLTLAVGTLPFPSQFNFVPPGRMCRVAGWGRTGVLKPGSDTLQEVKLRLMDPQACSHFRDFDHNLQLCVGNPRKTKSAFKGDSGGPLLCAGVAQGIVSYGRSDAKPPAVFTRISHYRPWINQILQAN
Briefly: Serine protease inhibition: chymase. As for the experimental part: as §1, §2

The next assay has as its target T4, Neutrophil elastase (Homo sapiens, UniProt P08246).
T4 construct: purchased Calbiochem 324681
T4 sequence (P08246 30-267): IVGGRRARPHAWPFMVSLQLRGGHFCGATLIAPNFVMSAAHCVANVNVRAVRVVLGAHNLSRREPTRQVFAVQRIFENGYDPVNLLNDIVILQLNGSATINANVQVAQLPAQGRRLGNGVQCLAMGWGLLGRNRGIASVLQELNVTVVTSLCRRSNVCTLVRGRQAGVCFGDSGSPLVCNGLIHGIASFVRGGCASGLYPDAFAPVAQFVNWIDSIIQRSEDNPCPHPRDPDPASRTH
Briefly: Serine protease inhibition: neutrophil elastase. As for the experimental part: as §1, §2

Where a name gives a salt, the structure may show the parent alone.

In the case of `NCCc1ccc(S(=O)(=O)F)cc1` [AEBSF, 4-(2-Aminoethyl)benzenesulfonyl fluoride hydrochloride, reference compound], the IC50 is 100 µM against Thrombin, 8.2 µM against Urokinase, 375 µM against Chymase and greater than 500 µM at Neutrophil elastase.
